The molecules below were run against T1, Syk kinase (Homo sapiens, UniProt P43405) (assay: Syk kinase inhibition, Caliper LabChip off-chip mobility-shift kinase assay). Conditions: Caliper LabChip assay; read-out: Syk Enzyme IC50.
T1 construct: purchased
Type: biochemical
How it was run: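 Purified Syk pre-incubated 15 min with compound in 100 mM HEPES pH 7.5, 1 mM DTT, 10 mM MgCl2 or MnCl2, 0.002% Brij-35, then 1.5 μM fluorescein peptide and ATP at apparent KM added; 1–1.5 h at room temperature, 4% DMSO, EDTA stop. Microfluidic mobility-shift product/substrate conversion gave % inhibition; IC50 from 12-point series (10–0.00003 μM) by 4-parameter fit.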

Compound | IC50 [nM]
CC(C)(C)Nc1nc(Nc2cc(-c3ccnc(N)n3)ccn2)cc2ccn(CCO)c(=O)c12 [compound 691] | 59
O=c1c2c(NC3CCCC3)nc(Nc3cnccn3)cc2ccn1C[C@H](O)CO [compound 775] | 10
C[C@H](O)c1ccnc(Nc2cc3ccn(CCO)c(=O)c3c(NC(C)(C)C)n2)c1 [compound 714] | 13
O=c1c2c(N[C@H]3CC[C@@H](O)CC3)nc(Nc3cnccn3)cc2ccn1CC(F)F [compound 1022] | 11
CC(CO)c1ccnc(Nc2cc3ccn(CCO)c(=O)c3c(NC(C)(C)C)n2)c1 (centres unmarked) [compound 864] | 2
CCn1ccc2cc(Nc3nccc(O)n3)nc(N[C@H]3CCC[C@H]3O)c2c1=O [compound 957] | 15
CC1(O)CN(Cc2cc(Nc3cc4ccn(CCO)c(=O)c4c(NC(C)(C)C)n3)ncc2F)C1 [compound 610] | 370
CC(C)(C)Nc1nc(Nc2cnccn2)cc2ccn(CC(N)=O)c(=O)c12 [compound 662] | 17
CCn1ccc2cc(Nc3cnccn3)nc(NC(C)(C)CCO)c2c1=O [compound 783] | 179
CCC(O)c1ccnc(Nc2cc3ccn(CCO)c(=O)c3c(NC(C)(C)C)n2)c1 (centres unmarked) [compound 710] | 37
CC(C)(C)Nc1nc(Nc2cc(CO)ccn2)cc2ccn(CC(=O)O)c(=O)c12 [compound 875] | 6
CCn1ccc2cc(Nc3cnccn3)nc(NC3CCS(=O)(=O)C3)c2c1=O (centres unmarked) [compound 971] | 145
CC(C)n1ccc2cc(Nc3cnccn3)nc(N[C@@H](C)CO)c2c1=O [compound 967] | 17
COCC(COC)n1ccc2cc(Nc3cnccn3)nc(NC(C)(C)C)c2c1=O [compound 937] | 12
CC(C)(C)Nc1nc(Nc2cc(CCO)ccn2)cc2ccn(CCO)c(=O)c12 [compound 857] | 4
CCn1ccc2cc(Nc3cnccn3)nc(NC3CCC(=O)CC3)c2c1=O [compound 969] | 81

Compound | IC50 [nM]
Nc1ncc(-c2cc3ccn(CCO)c(=O)c3c(N[C@H]3CC[C@@H](CO)C3)n2)cn1 [compound 912] | 2
CC(C)n1ccc2cc(-c3cnc(N)nc3)nc(N[C@H]3CC[C@@H](O)C3)c2c1=O [compound 1031] | 7
CC1(Nc2nc(Nc3cnccn3)cc3ccn(CCO)c(=O)c23)CCC1 [compound 896] | 11
CC(C)n1ccc2cc(Nc3cnccn3)nc(N[C@H]3CCC[C@H]3O)c2c1=O [compound 980] | 36
Cc1ccnc(Nc2cc3ccn(CCN4CCOCC4)c(=O)c3c(NC(C)(C)C)n2)c1 [compound 997] | 296
CC(C)(C)Nc1nc(Nc2cc(OC3CCN(CCO)CC3)ncn2)cc2ccn(CCO)c(=O)c12 [compound 646] | 9
COCCNC(=O)c1ccc(Nc2nc(Nc3cc(C)ccn3)cc3ccn(C)c(=O)c23)cc1 [compound 652] | 660
CCn1ccc2cc(Nc3cc(C)ccn3)nc(N)c2c1=O [compound 801] | 1900
CCCn1ccc2cc(-c3cnc(N)nc3)nc(NC(C)(C)C)c2c1=O [compound 914] | 108
CC(C)(C)Nc1nc(Nc2cc(C(F)(F)F)ccn2)cc2ccn(CCO)c(=O)c12 [compound 901] | 231
CC(C)(C)Nc1nc(Nc2cc(CNC3COC3)ccn2)cc2ccn(CCO)c(=O)c12 [compound 605] | 216
CC(C)(C)Nc1nc(Nc2cnccn2)cc2ccn(Cc3c[nH]nn3)c(=O)c12 [compound 881] | 18
CC(O)c1cc(Nc2cc3ccn(CCO)c(=O)c3c(NC(C)(C)C)n2)ncn1 (centres unmarked) [compound 727] | 30
CS(=O)(=O)CCn1ccc2cc(Nc3cnccn3)nc(N[C@H]3CC[C@H](O)CC3)c2c1=O [compound 982] | 22
N#CCn1ccc2cc(Nc3cnccn3)nc(NC3CCCC3)c2c1=O [compound 753] | 27
CC(C)(C)Nc1nc(-c2cnc(N)nc2)cc2ccn(CC3(CO)COC3)c(=O)c12 [compound 923] | 10

Same assay, conditions: read-out: Syk Enzyme IC50

Compound | IC50 [nM]
COc1cncc(-c2cc3cc[nH]c(=O)c3c(Nc3ccc(C4CCN(CC(=O)N(C)C)CC4)c(C)c3)n2)n1 [compound 167] | 91
Cc1ccc(Nc2cc3cc[nH]c(=O)c3c(Nc3ccc(C4CCN(C5CC5)CC4)c(C)c3)n2)nc1 [compound 249] | 1590
COc1cncc(-c2cc3cc[nH]c(=O)c3c(Nc3ccc(CCN4CCCN(C)CC4)cc3)n2)n1 [compound 434] | 37
COCCCN1CCC(c2ccc(Nc3nc(-c4cncnc4)cc4cc[nH]c(=O)c34)cc2F)CC1 [compound 197] | 35
COc1cncc(-c2cc3cc[nH]c(=O)c3c(Nc3ccc(CCN4CCN5CCCC5C4)cc3)n2)n1 (centres unmarked) [compound 7] | 53
COc1cncc(-c2cc3cc[nH]c(=O)c3c(Nc3ccc(C4CN(CCS(C)(=O)=O)C4)cc3)n2)n1 [compound 148] | 22
Nc1ncc(-c2cc3c(F)c[nH]c(=O)c3c(Nc3ccc(N4CCOCC4)cc3)n2)cn1 [compound 428] | 108
CCOCC(=O)N1CCC(c2ccc(Nc3nc(-c4cncc(OC)n4)cc4cc[nH]c(=O)c34)cc2)CC1 [compound 28] | 115
COCCNC(=O)c1ccc(Nc2nc(-c3cncc(OC)n3)cc3cc[nH]c(=O)c23)cc1 [compound 59] | 168
Cn1ccc2cc(Nc3cnccn3)nc(N[C@H]3CCOC3)c2c1=O [compound 329] | 63
CCn1ccc2cc(Nc3cc(C)c(F)cn3)nc(N[C@@H](C)CO)c2c1=O [compound 395] | 85
Cc1cc(Nc2nc(CCO)cc3cc[nH]c(=O)c23)ccc1C1CCN(C2CC2)CC1 [compound 246] | 41
Cc1ccnc(Nc2cc3cc[nH]c(=O)c3c(NC(C)CC(C)C)n2)c1 (centres unmarked) [compound 270] | 6950
O=c1[nH]ccc2cc(C3CCSCC3)nc(Nc3ccc(N4CCOCC4)cc3)c12 [compound 15] | 702
COCC(Cl)C(=O)N1CCC(c2ccc(Nc3nc(-c4cncc(OC)n4)cc4cc[nH]c(=O)c34)cc2C)CC1 (centres unmarked) [compound 90] | 204
Cc1cc(Nc2nc(Nc3cc(CO)ccn3)cc3cc[nH]c(=O)c23)ccc1C1CCN(C2CC2)CC1 [compound 260] | 49
Cc1ccc(-c2cc3cc[nH]c(=O)c3c(Nc3ccc(C4CCN(CCCF)CC4)c(C)c3)n2)cn1 [compound 46] | 37

Compound | IC50 [nM]
Cc1cc(Nc2nc(Nc3cc(C(=O)O)ccn3)cc3cc[nH]c(=O)c23)ccc1C1CCN(C2CC2)CC1 [compound 261] | 249
Cc1ccc(-c2cc3cc[nH]c(=O)c3c(Nc3ccc(CCN4CCNC(=O)C4)cc3)n2)cn1 [compound 152] | 117
Cc1ccc(-c2cc3cc[nH]c(=O)c3c(Nc3ccc(CCN4CCCN(C)CC4)cc3)n2)cn1 [compound 437] | 102
Nc1ncc(-c2cc3cc[nH]c(=O)c3c(N3CCCC3)n2)cn1 [compound 181] | 15
CCn1ccc2cc(Nc3ncccn3)nc(NC[C@@H]3CC[C@@H](O)C3)c2c1=O [compound 413] | 46.2
COCCN1CCC(c2ccc(Nc3nc(-c4cnc(C)nc4)cc4cc[nH]c(=O)c34)cc2C)CC1 [compound 71] | 14
C[C@@H]1CN(c2ccc(Nc3nc(/C=C/C(=O)O)cc4cc[nH]c(=O)c34)cn2)CCO1 [compound 241] | 208
CCOCCOc1ccc(Nc2nc(Nc3cnccn3)cc3ccn(C)c(=O)c23)cc1 [compound 340] | 2060
COc1cncc(-c2cc3cc[nH]c(=O)c3c(Nc3ccc(CCCN4CCOCC4)cc3)n2)n1 [compound 40] | 95
CN1CCC(Nc2nc(-c3cnc(N)nc3)cc3ccn(C)c(=O)c23)CC1 [compound 31] | 1770
Cc1ncc(-c2cc3cc[nH]c(=O)c3c(Nc3ccc(C4CCN(CCC#N)CC4)c(C)c3)n2)cn1 [compound 73] | 81
O=c1[nH]ccc2cc(Nc3ccccn3)nc(NC3CCOC3)c12 (centres unmarked) [compound 287] | 148
Cn1ccc2cc(Nc3cc(Cl)ccn3)nc(N[C@H]3CC[C@@H](O)CC3)c2c1=O [compound 379] | 36
COc1cncc(-c2cc3cc[nH]c(=O)c3c(Nc3ccc(C4CCN(C(C)C(=O)NC(C)C)CC4)c(C)c3)n2)n1 (centres unmarked) [compound 175] | 144
C=C(C)c1cc2cc[nH]c(=O)c2c(Nc2ccc(C3CCN(C4CC4)CC3)c(C)c2)n1 [compound 229] | 743
Cc1nc(-c2cc3cc[nH]c(=O)c3c(Nc3ccc([C@H]4CC[C@H](N5CCOCC5)CC4)cc3)n2)cnc1N [compound 102] | 226

The next lines start with the values.

IC50 [nM] | Compound
810 | Cn1ccc2cc(Nc3cc(Cl)ccn3)nc(NC3CCC3)c2c1=O [compound 544]
111 | Cc1cc(Nc2cc3ccn(CCO)c(=O)c3c(NC(C)(C)CO)n2)ncc1Cl [compound 497]
281 | CCC(C)(C)Nc1nc(-c2cnc(N)nc2)cc2cc[nH]c(=O)c12 [compound 454]
430 | CCN1CCN(CCc2ccc(Nc3nc(Nc4ccc(C)cn4)cc4cc[nH]c(=O)c34)cc2)CC1 [compound 563]
390 | Cc1ccc(Nc2cc3cc[nH]c(=O)c3c(Nc3ccc(CCN4CCCN(C)CC4)cc3)n2)nc1 [compound 552]
34 | CC(C)Nc1nc(Nc2cc(CO)ccn2)cc2cc[nH]c(=O)c12 [compound 510]
76 | Cc1cc(Nc2cc3ccn(CCO)c(=O)c3c(NC(C)(C)CO)n2)ncc1F [compound 498]
100 | O=c1[nH]ccc2cc(Nc3cnccn3)nc(Nc3ccc(N4CCOCC4)cc3)c12 [compound 461]
54 | CC(C)Nc1nc(Nc2cc(Cl)ccn2)cc2cc[nH]c(=O)c12 [compound 484]
124 | Cc1ccnc(Nc2cc3ccn(C)c(=O)c3c(NC3CCC3)n2)c1 [compound 489]
271 | O=c1c2c(NCC(F)(F)F)nc(Nc3cc(Cl)ccn3)cc2ccn1CCO [compound 593]
3350 | Cc1cc(Nc2nc(Nc3ccc(C#N)cn3)cc3cc[nH]c(=O)c23)ccc1N1CCO[C@H](C)C1 [compound 557]
